Measured values reported in patent US20040229230A1, “Method for gene isolation by Cre-trap cloning” (priority 2002, published 2004).

Tests used:
[1] = tested on: parent BW cell line (BW5147 murine thymoma); assay: Culture of parent BW cell line in ganciclovir (HSVTK activity assessment); type: cell-based; details: 5 μM ganciclovir; parent BW cell line without HSVTK
Protocol: (§1) BW subclones with varying levels of GFPCre expression were tested for functional Cre recombinase and HSVTK activity. The pCT.1 (pCT.1^AMP) vector was transiently transfected into each cell line followed by recovery and analysis of plasmid configuration (pCT.1^AMP vs. pCT.1^CAT). Maximal conversion would result in equimolar ratios of pCT.1^AMP and pCT.1^CAT due to the reversible nature of the reaction. […] The kinetics of conversion in cell lines expressing different levels of GFPCre was evaluated. To assess HSVTK activity, all of the cell lines were cultured in 5 μM ganciclovir. […] No spontaneous revertants were isolated, which, given the culture conditions, puts the spontaneous reversion rate at <10^−8.

[2] = tested on: GFPCre:IRES:HSVTK expressing clones (BW5147 subclones); assay: Culture of GFPCre:IRES:HSVTK expressing BW clones in ganciclovir (HSVTK activity assessment); type: cell-based, murine; details: 5 μM ganciclovir
Description: 2.1 GFPCre:IRES:HSVTK cassette function: A retroviral vector was generated with the cDNA encoding the GFPCre fusion protein followed by an […] ribosomal entry site (IRES) and the cDNA encoding HSVTK (FIG. 2). In addition, the upstream activating sequence (UAS) which binds the Gal4 transcriptional trans-activator was cloned upstream of the GFPCre cDNA (FIG. 2). The BW5147 thymoma was infected with this retrovirus, and subclones (BW-1, 5, 41 and 50) expressing different levels of the GFPCre fusion protein were identified by flow cytometry (FIG. 3).
as §1

Question: Which results are given for `Nc1nc(O)c2ncn(COC(CO)CO)c2n1` [ganciclovir]?
Answer: growth in media with ganciclovir [1]: normal growth; growth/survival in media with ganciclovir [2]: all died
